Experiments:
[1] = test system: mouse model of gut ischemia-reperfusion; assay: Gut ischemia-reperfusion by ligation and release of superior mesenteric artery; FD4 gut permeability in everted gut sacks; conditions: 10 mg/kg i.v. 10 min prior to reperfusion
Experimental: In order to examine the efficacy of the compounds of the invention in ischemia-reperfusion conditions, the effect of selected compounds in a local model of reperfusion injury was examined. […] The artery was occluded for 45 min, followed by reperfusion for 1 h. Following the end of the reperfusion, gut permeability was measured with the fluorescein isothiocyanate-conjugated dextran (FD4) method in everted gut sacks.
The artery was occluded for 45 min, followed by reperfusion for 1 h. Following the end of the reperfusion, gut permeability was measured with the FD4 method in everted gut sacks.

PARS = PARS (Mus musculus, UniProt P11103); assay: PARS inhibition by nucleoside derivatives (in vitro inflammation models); assay type: cell-based
Source text: For example, conjugates of adenosine derivatives were investigated for PARS inhibition.

[2] = test system: myocardial ischemia-reperfusion in Male Wistar rats; assay: Myocardial infarction by left anterior descending coronary artery occlusion/reperfusion; assay type: in vivo; conditions: rat; 20 mg/kg i.v. 10 min before reperfusion; 1 h ischemia, 2 h reperfusion
Experimental: In another set of experiments, Male Wistar rats were anesthetized with thiopentone sodium (60 mg/kg, i.p.) and were subjected to myocardial infarction. The chest was opened at the fourth intercostal space and a 5.0 silk ligature was placed around the left anterior descending coronary artery for occlusion. Next, one hour of myocardial ischemia was performed, followed by 2 h reperfusion. Myocardial infarct size was quantified by tetrazolium staining.

[3] = test system: endotoxin-induced lethality in a mouse model; assay: Endotoxin-induced lethality (systemic inflammation); assay type: in vivo
Experimental: The compounds were given as oral gavage at 10 mg/kg, twice a day.

[4] = test system: rat model of middle cerebral artery occlusion/reperfusion; assay: Middle cerebral artery occlusion/reperfusion; assay type: in vivo; conditions: 2 h occlusion, 24 h reperfusion, 10 mg/kg i.v. then 10 mg/kg/h, tetrazolium staining
Experimental: Occlusion lasted for 2 hours, followed by reperfusion for 24 hours. Infarct size was quantified with tetrazolium staining and survival and neurological scores were monitored. The compounds were administered at 10 mg/kg i.v. 5 min before the start of reperfusion in one group, and continued at a rate of 10 mg/kg/h infusion during the reperfusion. Vehicle-treated animals (control) developed a >50% mortality over 24 hours, whereas <10% of the animals died in the drug treated groups. The compounds tested reduced the size of brain infarction by 64±2 and 57±3%, respectively.

Chain of PARS (P11103 whole entry): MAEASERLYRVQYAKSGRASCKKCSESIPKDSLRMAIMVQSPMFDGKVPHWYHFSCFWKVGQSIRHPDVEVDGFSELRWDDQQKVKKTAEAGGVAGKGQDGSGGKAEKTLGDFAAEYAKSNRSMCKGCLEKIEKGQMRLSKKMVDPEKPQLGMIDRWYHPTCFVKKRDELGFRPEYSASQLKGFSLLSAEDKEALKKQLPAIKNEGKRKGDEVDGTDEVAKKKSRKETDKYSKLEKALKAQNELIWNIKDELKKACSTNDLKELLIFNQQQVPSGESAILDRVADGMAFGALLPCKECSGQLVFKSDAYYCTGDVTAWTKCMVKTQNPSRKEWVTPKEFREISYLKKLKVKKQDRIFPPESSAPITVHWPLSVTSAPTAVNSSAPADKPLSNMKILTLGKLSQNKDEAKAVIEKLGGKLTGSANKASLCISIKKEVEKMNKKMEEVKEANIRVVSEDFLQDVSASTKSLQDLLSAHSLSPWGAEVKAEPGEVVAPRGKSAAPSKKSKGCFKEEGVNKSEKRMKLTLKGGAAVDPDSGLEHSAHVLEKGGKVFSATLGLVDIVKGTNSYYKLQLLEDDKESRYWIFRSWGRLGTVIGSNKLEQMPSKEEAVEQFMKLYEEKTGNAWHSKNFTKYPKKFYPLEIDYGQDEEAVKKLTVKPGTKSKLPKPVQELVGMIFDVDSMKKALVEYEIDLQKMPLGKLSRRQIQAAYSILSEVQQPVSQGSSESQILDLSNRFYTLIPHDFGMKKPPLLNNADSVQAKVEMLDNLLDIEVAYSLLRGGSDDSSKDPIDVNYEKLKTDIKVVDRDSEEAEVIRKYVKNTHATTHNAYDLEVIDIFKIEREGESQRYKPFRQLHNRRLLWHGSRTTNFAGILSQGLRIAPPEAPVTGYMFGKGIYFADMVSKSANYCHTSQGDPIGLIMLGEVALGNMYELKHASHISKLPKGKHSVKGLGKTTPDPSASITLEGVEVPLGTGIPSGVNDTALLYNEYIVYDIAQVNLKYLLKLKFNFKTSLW

Nc1ncnc2c1ncn2C1OC(C(=O)N2CCN(CC(=O)Nc3cccc4c3CNC4=O)CC2)C(O)C1O (stereo not shown) [Compound 130]
reduction of the increase in the permeability of the gut [1]: 74% | PARS inhibitory activity (in words) (PARS): most potent | inhibition at 10 µM (PARS; 10 μM, values marked *, asterisk not explained, read-out: Inhibition at 10 μM (values marked *)): 97% | Inhibition at 200 nm (PARS; 200 nm, printed in the 100 μM column): 100 at 200 nm | reduction of myocardial infarct size [2]: 35±7% | protection against endotoxin-induced lethality [3]: protected against endotoxin-induced lethality | reduction of the size of brain infarction [4]: 57±3%

Source: patent US6903079B2, “Nucleoside compounds and compositions thereof” (Inotek Pharmaceuticals Corporation, priority 2000, dated 2005)
